Measurements as given in patent US10858335B2 (Rigel Pharmaceuticals, Inc., priority 2014, dated 2020).

Each molecule was assayed on GDF8 signaling (p-SMAD-3 (Ser423/425)) (assay: AlphaScreen SureFire SMAD3 (p-Ser423/425) assay, GDF8-stimulated cells (GDF pSMAD)). Conditions: Mus musculus, MPC-11, MPC11; GDF8-stimulated; p-SMAD3 AlphaScreen; read-out: GDF pSMAD (MPC11) (inhibition of GDF8 signaling).
Assay type: cell-based

SMILES	IC50
COCc1cnc(-c2ccc(F)c(C)c2)c(-c2ccc3nccnc3c2)c1 [compound 228, 6-(2-(4-Fluoro-3-methylphenyl)-5-(methoxymethyl)pyridin-3-yl)quinoxaline]	9.76 µM
Cc1cc(-c2ncc(CN3CCN(C)CC3)cc2-c2ccc3nccnc3c2)ccc1F [compound 230, 6-(2-(4-Fluoro-3-methylphenyl)-5-((4-methylpiperazin-1-yl)methyl)pyridin-3-yl)quinoxaline]	10.8 µM
Cc1cc(-c2ncc(COCC(=O)N(C)C)cc2-c2ccc3nccnc3c2)ccc1F [compound 231, 2-((6-(4-Fluoro-3-methylphenyl)-5-(quinoxalin-6-yl)pyridin-3-yl)methoxy)-N,N-dimethylacetamide]	10.8 µM
CNC(=O)COCc1cnc(-c2ccc(F)c(C)c2)c(-c2ccc3nccnc3c2)c1 [compound 232, 2-((6-(4-Fluoro-3-methylphenyl)-5-(quinoxalin-6-yl)pyridin-3-yl)methoxy)-N-methylacetamide]	10.6 µM
Cc1cc(-c2ncc(COCC(N)=O)cc2-c2ccc3nccnc3c2)ccc1F [compound 233, 2-((6-(4-Fluoro-3-methylphenyl)-5-(quinoxalin-6-yl)pyridin-3-yl)methoxy)acetamide]	6.69 µM
Cc1cc(-c2ncc(N)cc2-c2ccc3nccnc3c2)ccc1F [compound 239, 6-(4-Fluoro-3-methylphenyl)-5-(quinoxalin-6-yl)pyridin-3-amine]	0.266 µM
Cc1cc(-c2ncc(NC3CCN(C)CC3)cc2-c2ccc3nccnc3c2)ccc1F [compound 240, 6-(4-Fluoro-3-methylphenyl)-N-(1-methylpiperidin-4-yl)-5-(quinoxalin-6-yl)pyridin-3-amine]	7.45 µM
Cc1cc(-c2ncc(NC(C)C)cc2-c2ccc3nccnc3c2)ccc1F [compound 241, 6-(4-Fluoro-3-methylphenyl)-N-isopropyl-5-(quinoxalin-6-yl)pyridin-3-amine]	4.06 µM
Cc1cc(-c2ncc(NC3CCCCC3O)cc2-c2ccc3nccnc3c2)ccc1F (stereo not drawn) [compound 243, 2-((6-(4-Fluoro-3-methylphenyl)-5-(quinoxalin-6-yl)pyridin-3-yl)amino)cyclohexan-1-ol]	11.9 µM
Cc1cc(-c2ncc(NCc3cccnc3)cc2-c2ccc3nccnc3c2)ccc1F [compound 244, 6-(4-Fluoro-3-methylphenyl)-N-(pyridin-3-ylmethyl)-5-(quinoxalin-6-yl)pyridin-3-amine]	0.798 µM
Cc1cc(-c2ncc(NCc3ccncc3)cc2-c2ccc3nccnc3c2)ccc1F [compound 245, 6-(4-Fluoro-3-methylphenyl)-N-(pyridin-4-ylmethyl)-5-(quinoxalin-6-yl)pyridin-3-amine]	1.26 µM
Cc1cc(-c2ncc(NCc3ccccn3)cc2-c2ccc3nccnc3c2)ccc1F [compound 246, 6-(4-Fluoro-3-methylphenyl)-N-(pyridin-2-ylmethyl)-5-(quinoxalin-6-yl)pyridin-3-amine]	1.29 µM
Cc1cc(-c2ncc(NC3CCN(C)CC3)cc2-c2ccc3ncsc3c2)ccc1F [compound 247, 5-(Benzo[d]thiazol-6-yl)-6-(4-fluoro-3-methylphenyl)-N-(1-methylpiperidin-4-yl)pyridin-3-amine]	3.2 µM
Cc1cc(-c2ncccc2-c2ccc3cnccc3c2)ccc1F [compound 249, 6-(2-(4-Fluoro-3-methylphenyl)pyridin-3-yl)isoquinoline]	8.83 µM
Cc1cccc(-c2ncccc2-c2ccc3ncn(CCCN4CCOCC4)c3c2)c1 [compound 250, 4-(3-(6-(2-m-Tolylpyridin-3-yl)-1H-benzo[d]imidazol-1-yl)propyl)morpholine]	10.5 µM
Cc1cccc(-c2ncccc2-c2ccc3ncn(CCCN4CCN(C)CC4)c3c2)c1 [compound 251, 1-(3-(4-Methylpiperazin-1-yl)propyl)-6-(2-m-tolylpyridin-3-yl)-1H-benzo[d]imidazole]	17.8 µM
Cc1cc(-c2ncccc2-c2ccc3ncn(CCCN4CCOCC4)c3c2)ccc1F [compound 252, 4-(3-(6-(2-(4-fluoro-3-methylphenyl)pyridin-3-yl)-1H-benzo[d]imidazol-1-yl)propyl)morpholine]	12.7 µM
Cc1cc(-c2ncccc2-c2ccc3ncn(CCCN4CCN(C)CC4)c3c2)ccc1F [compound 253, 1-(3-(4-Methylpiperazin-1-yl)propyl)-6-(2-(4-fluoro-3-methylphenyl)pyridin-3-yl)-1H-benzo[d]imidazole]	12.4 µM
Cc1cc(-c2ncccc2-c2ccc3nc(F)cn3c2)ccc1F [compound 254, 2-Fluoro-6-(2-(4-fluoro-3-methylphenyl)pyridin-3-yl)imidazo[1,2-a]pyridine]	0.39 µM
Cc1cc(-c2ncccc2-c2ccc3cnc(C(=O)O)n3c2)ccc1F [compound 257, 6-(2-(4-Fluoro-3-methylphenyl)pyridin-3-yl)imidazo[1,5-a]pyridine-3-carboxylic acid]	1.84 µM

SMILES	IC50
Cc1cc(-c2ncccc2-c2ccn3c(C(=O)O)ncc3c2)ccc1F [compound 258, 7-(2-(4-Fluoro-3-methylphenyl)pyridin-3-yl)imidazo[1,5-a]pyridine-3-carboxylic acid]	1.27 µM
Cc1cc(-c2ncccc2-c2ccn3c(C(=O)NCCCN4CCN(C)CC4)ncc3c2)ccc1F [compound 264, 7-(2-(4-Fluoro-3-methylphenyl)pyridin-3-yl)-N-(3-(4-methylpiperazin-1-yl)propyl)imidazo[1,5-a]pyridine-3-carboxamide]	9.15 µM
Cc1cc(-c2ncccc2-c2ccn3c(C(=O)NCCN4CCN(C)CC4)ncc3c2)ccc1F [compound 265, 7-(2-(4-Fluoro-3-methylphenyl)pyridin-3-yl)-N-(2-(4-methylpiperazin-1-yl)ethyl)imidazo[1,5-a]pyridine-3-carboxamide]	8.12 µM
Cc1cc(-c2ncccc2-c2ccn3c(C(=O)NCCCN4CCOCC4)ncc3c2)ccc1F [compound 266, 7-(2-(4-Fluoro-3-methylphenyl)pyridin-3-yl)-N-(3-morpholinopropyl)imidazo[1,5-a]pyridine-3-carboxamide]	4.54 µM
Cc1cc(-c2ncccc2-c2ccn3c(C(=O)NCCCN(C)C)ncc3c2)ccc1F [compound 267, N-(3-(Dimethylamino)propyl)-7-(2-(4-fluoro-3-methylphenyl)pyridin-3-yl)imidazo[1,5-a]pyridine-3-carboxamide]	6.76 µM
Cc1cc(-c2ncccc2-c2ccn3c(C(=O)NCCN(C)C)ncc3c2)ccc1F [compound 268, N-(2-(Dimethylamino)ethyl)-7-(2-(4-fluoro-3-methylphenyl)pyridin-3-yl)imidazo[1,5-a]pyridine-3-carboxamide]	14.4 µM
Cc1cc(-c2ncccc2-c2ccc3cncn3c2)ccc1F [compound 269, 6-(2-(4-Fluoro-3-methylphenyl)pyridin-3-yl)imidazo[1,5-a]pyridine]	1.38 µM
Cc1cc(-c2ncccc2-c2ccc3cnc(C(=O)NCCN4CCOCC4)n3c2)ccc1F [compound 271, 6-(2-(4-Fluoro-3-methylphenyl)pyridin-3-yl)-N-(2-morpholinoethyl)imidazo[1,5-a]pyridine-3-carboxamide]	4.44 µM
Cc1cc(-c2ncccc2-c2ccc3cnc(C(=O)NCCN4CCCC4)n3c2)ccc1F [compound 272, 6-(2-(4-Fluoro-3-methylphenyl)pyridin-3-yl)-N-(2-(pyrrolidin-1-yl)ethyl)imidazo[1,5-a]pyridine-3-carboxamide]	3.4 µM
Cc1cc(-c2ncccc2-c2ccc3cnc(C(=O)NCCCN4CCCC4)n3c2)ccc1F [compound 273, 6-(2-(4-Fluoro-3-methylphenyl)pyridin-3-yl)-N-(3-(pyrrolidin-1-yl)propyl)imidazo[1,5-a]pyridine-3-carboxamide]	9.79 µM
Cc1cc(-c2ncccc2-c2ccn3c(C(=O)NCCCN4CCCC4=O)ncc3c2)ccc1F [compound 274, 7-(2-(4-Fluoro-3-methylphenyl)pyridin-3-yl)-N-(3-(2-oxopyrrolidin-1-yl)propyl)imidazo[1,5-a]pyridine-3-carboxamide]	14.8 µM
Cc1cc(-c2ncccc2-c2ccn3c(C(=O)NCCN4CCOCC4)ncc3c2)ccc1F [compound 275, 7-(2-(4-Fluoro-3-methylphenyl)pyridin-3-yl)-N-(2-morpholinoethyl)imidazo[1,5-a]pyridine-3-carboxamide]	2.95 µM
Cc1cc(-c2ncccc2-c2ccn3c(C(=O)NCCCn4ccnc4)ncc3c2)ccc1F [compound 277, N-(3-(1H-Imidazol-1-yl)propyl)-7-(2-(4-fluoro-3-methylphenyl)pyridin-3-yl)imidazo[1,5-a]pyridine-3-carboxamide]	1.67 µM
Cc1cc(-c2ncccc2-c2ccn3c(C(=O)NCCCN4CCCC4)ncc3c2)ccc1F [compound 278, 7-(2-(4-Fluoro-3-methylphenyl)pyridin-3-yl)-N-(3-(pyrrolidin-1-yl)propyl)imidazo[1,5-a]pyridine-3-carboxamide]	2.23 µM
Cc1cc(-c2ncccc2-c2ccc3ncc(-c4ccc(S(N)(=O)=O)cc4)n3c2)ccc1F [compound 281, 4-(6-(2-(4-Fluoro-3-methylphenyl)pyridin-3-yl)imidazo[1,2-a]pyridin-3-yl)benzenesulfonamide]	1.3 µM
Cc1cc(-c2ncccc2-c2ccc3cnc(-c4ccncc4)n3c2)ccc1F [compound 282, 6-(2-(4-Fluoro-3-methylphenyl)pyridin-3-yl)-3-(pyridin-4-yl)imidazo[1,5-a]pyridine]	19.4 µM
Cc1cc(-c2ncccc2-c2ccc3cnc(-c4cccc(N)c4)n3c2)ccc1F [compound 283, 3-(6-(2-(4-Fluoro-3-methylphenyl)pyridin-3-yl)imidazo[1,5-a]pyridin-3-yl)aniline]	17.7 µM
COc1cccc(-c2ncc3cc(-c4cccnc4-c4ccc(F)c(C)c4)ccn23)c1 [compound 286, 7-(2-(4-Fluoro-3-methylphenyl)pyridin-3-yl)-3-(3-methoxyphenyl)imidazo[1,5-a]pyridine]	12 µM
Cc1cc(-c2ncccc2-c2ccn3c(-c4ccncc4)ncc3c2)ccc1F [compound 287, 7-(2-(4-Fluoro-3-methylphenyl)pyridin-3-yl)-3-(pyridin-4-yl)imidazo[1,5-a]pyridine]	3.03 µM
